Laboratory results as given in patent US20240174603A1 (Rappta Therapeutics Oy, priority 2021, published 2024).

Each compound was assayed on LNCaP cells (assay: LNCaP cell viability assay (MTS)). Settings: Homo sapiens, LNCaP cell line, 48 hours.
Format: cell-based
In short: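 GI50 derived by nonlinear four-parameter curve fitting (bottom fixed at zero) of MTS viability data. Prostate LNCaP cells seeded at 5000/well were given compound doses from 1 to 80 µM one day after plating and assayed after 48 h of exposure.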

Row | SMILES | GI50
1 | CN(C)CC(NS(=O)(=O)c1cccc(OC(F)(F)F)c1[N+](=O)[O-])c1ccc(Cl)c(Cl)c1 (stereo not drawn) [Compound 223, N-(1-(3,4-dichlorophenyl)-2-(dimethylamino)ethyl)-2-nitro-3-(trifluoromethoxy)benzenesulfonamide] | 57.4 µM

Same assay, conditions: Homo sapiens, LNCaP, 48 h, LNCaP cell line

Row | SMILES | GI50
2 | CN(C)C[C@@H](Cc1ccc(Cl)c(Cl)c1)NS(=O)(=O)c1ccc(OC(F)(F)F)cc1 [Compound 246, (R)—N-(1-(3,4-dichlorophenyl)-3-(dimethylamino)propan-2-yl)-4-(trifluoromethoxy)benzenesulfonamide] | 23.8 µM
3 | CC(C)(C)Oc1ccccc1CNS(=O)(=O)c1ccc(OC(F)(F)F)cc1 [Compound 78, N-(2-(tert-butoxy)benzyl)-4-(trifluoromethoxy)benzenesulfonamide] | 46 µM
4 | Cc1cccc(C(CN(C)C)NS(=O)(=O)c2ccc(OC(F)(F)F)cc2)c1 (stereo not drawn) [Compound 119, N-(2-(dimethylamino)-1-(m-tolyl)ethyl)-4-(trifluoromethoxy)benzenesulfonamide] | 48.5 µM
5 | CN(C)C[C@H](Cc1ccc(Cl)c(Cl)c1)NS(=O)(=O)c1ccc(OC(F)(F)F)cc1 [Compound 247, (S)—N-(1-(3,4-dichlorophenyl)-3-(dimethylamino)propan-2-yl)-4-(trifluoromethoxy)benzenesulfonamide] | 22.8 µM
6 | CC(CC1CCCCN1C)NS(=O)(=O)c1ccc(OC(F)(F)F)cc1 (stereo not drawn) [Compound 93, N-(1-(1-methylpiperidin-2-yl)propan-2-yl)-4-(trifluoromethoxy)benzenesulfonamide] | 34 µM
7 | CN(C)CC(NS(=O)(=O)c1ccc(-c2ccccc2)cc1)c1ccc(Cl)c(Cl)c1 (single isomer, unassigned) [Compound 195, N-(1-(3,4-dichlorophenyl)-2-(dimethylamino)ethyl)-[1,1′-biphenyl]-4-sulfonamide] | 11.9 µM
8 | CCOC(=O)CC(NS(=O)(=O)c1ccc(OC(F)(F)F)cc1)c1ccc(C)cc1 (stereo not drawn) [Compound 24] | 44.2 µM
9 | O=S(=O)(NC(c1ccc(F)c(C(F)(F)F)c1)C1CC1)c1ccc(OC(F)(F)F)cc1 (stereo not drawn) [Compound 34, N-(cyclopropyl(4-fluoro-3-(trifluoromethyl)phenyl)methyl)-4-(trifluoromethoxy)benzenesulfonamide] | 40.1 µM
10 | COC(=O)C(Cc1ccccc1O)NS(=O)(=O)c1ccc(OC(F)(F)F)cc1 (stereo not drawn) [Compound 111, Methyl 3-(2-hydroxyphenyl)-2-((4-(trifluoromethoxy)phenyl)sulfonamido)propanoate] | 50 µM
11 | Cc1ccc(CNS(=O)(=O)c2ccc(OC(F)(F)F)cc2)c(OCC(C)C)c1 [Compound 74, N-(2-isobutoxy-4-methylbenzyl)-4-(trifluoromethoxy)benzenesulfonamide] | 60 µM
12 | COc1ccc([C@@H]2[C@@H](CNS(=O)(=O)c3ccc(OC(F)(F)F)cc3)CCN2C)cc1 (racemic) [Compound 106, Rac-N-(((2S,3R)-2-(4-methoxyphenyl)-1-methylpyrrolidin-3-yl)methyl)-4-(trifluoromethoxy)benzenesulfonamide] | 24 µM
13 | O=S(=O)(NC(CN1CCNCC1)c1ccc(Cl)cc1)c1ccc(OC(F)(F)F)nc1 (stereo not drawn) [Compound 259, N-(1-(4-chlorophenyl)-2-(piperazin-1-yl)ethyl)-6-(trifluoromethoxy)pyridine-3-sulfonamide] | 48.8 µM
14 | CN(Cc1ccccc1Br)C(=O)CCNS(=O)(=O)c1ccc(OC(F)(F)F)cc1 [Compound 48, N-(2-bromobenzyl)-N-methyl-3-((4-(trifluoromethoxy)phenyl)sulfonamido)propenamide] | 43 µM
15 | CC(Cc1c(Cl)cccc1Cl)NS(=O)(=O)c1ccc(OC(F)(F)F)cc1 (stereo not drawn) [Compound 67, N-(1-(2,6-dichlorophenyl)propan-2-yl)-4-(trifluoromethoxy)benzenesulfonamide] | 50 µM
16 | CN(C)CC(NS(=O)(=O)c1ccc(OC(F)(F)F)cc1)c1cccc(C(F)(F)F)c1 (stereo not drawn) [Compound 120, N-(2-(dimethylamino)-1-(3-(trifluoromethyl)phenyl)ethyl)-4-(trifluoromethoxy)benzenesulfonamide] | 46.3 µM
17 | CCCCN(CCCNS(=O)(=O)c1ccc(OC(F)(F)F)cc1)Cc1ccccc1 [Compound 64, N-(3-(benzyl(butyl)amino)propyl)-4-(trifluoromethoxy)benzenesulfonamide] | 36 µM

More lines, now with the values ahead:

Row | GI50 | SMILES
18 | 64 µM | CS(=O)(=O)c1cc(CNS(=O)(=O)c2ccc(OC(F)(F)F)cc2)cc(C(F)(F)F)c1 [Compound 82, N-(3-(methylsulfonyl)-5-(trifluoromethyl)benzyl)-4-(trifluoromethoxy)benzenesulfonamide]
19 | 46 µM | CN(C)CC(NS(=O)(=O)c1cccc(Cl)c1)c1ccc(Cl)c(Cl)c1 (stereo not drawn) [Compound 163, 3-chloro-N-(1-(3,4-dichlorophenyl)-2-(dimethylamino)ethyl)benzenesulfonamide]
20 | 58.3 µM | O=S(=O)(NCc1ccccc1S(=O)(=O)N1CCCCC1)c1ccc(OC(F)(F)F)cc1 [Compound 2, N-(2-(piperidin-1-ylsulfonyl)benzyl)-4-(trifluoromethoxy)benzenesulfonamide]
21 | 30 µM | O=S(=O)(NCC1(c2c(Cl)cccc2Cl)CCC1)c1ccc(OC(F)(F)F)cc1 [Compound 56, N-((1-(2,6-dichlorophenyl)cyclobutyl)methyl)-4-(trifluoromethoxy)benzenesulfonamide]
22 | 55 µM | NC[C@@H](NS(=O)(=O)c1ccc(OC(F)(F)F)cc1)c1ccccc1 [Compound 117, (S)—N-(2-amino-1-phenylethyl)-4-(trifluoromethoxy)benzenesulfonamide]
23 | 28.2 µM | CN(C)CC(NS(=O)(=O)c1ccc(Cl)cc1)c1ccc(Cl)c(Cl)c1 (stereo not drawn) [Compound 164, 4-chloro-N-(1-(3,4-dichlorophenyl)-2-(dimethylamino)ethyl)benzenesulfonamide]
24 | 1.4 µM | CN(C)C[C@@H](NS(=O)(=O)c1ccc(OC(F)(F)F)c([N+](=O)[O-])c1)c1ccc(Cl)c(Cl)c1 (single isomer, unassigned) [Compound 203, N-(1-(3,4-dichlorophenyl)-2-(dimethylamino)ethyl)-3-nitro-4-(trifluoromethoxy)benzenesulfonamide]
25 | 45.2 µM | Cc1ccc(C(CN(C)C)NS(=O)(=O)c2ccc(OC(F)(F)F)cc2)cc1 (stereo not drawn) [Compound 123, N-(2-(dimethylamino)-1-(p-tolyl)ethyl)-4-(trifluoromethoxy)benzenesulfonamide]
26 | 66 µM | CC(C)c1ccc(C(CC(=O)O)NS(=O)(=O)c2ccc(OC(F)(F)F)cc2)cc1 (stereo not drawn) [Compound 113, 3-(4-isopropylphenyl)-3-((4-(trifluoromethoxy)phenyl)sulfonamido)propanoic acid]
27 | 54 µM | CCCC(NS(=O)(=O)c1ccc(OC(F)(F)F)cc1)C(=O)N(C)C1CCCCCC1 (stereo not drawn) [Compound 4, N-cycloheptyl-N-methyl-2-((4-(trifluoromethoxy)phenyl)sulfonamido)pentanamide]
28 | 14.4 µM | CCCc1ccc(S(=O)(=O)NC(CN(C)C)c2ccc(Cl)c(Cl)c2)cc1 (single isomer, unassigned) [Compound 199, N-(1-(3,4-dichlorophenyl)-2-(dimethylamino)ethyl)-4-propylbenzenesulfonamide]
29 | 24.7 µM | CN(C)CC(NS(=O)(=O)c1ccc(OC(F)(F)F)cc1)c1ccc(Cl)c(F)c1 (stereo not drawn) [Compound 168, N-(1-(4-chloro-3-fluorophenyl)-2-(dimethylamino)ethyl)-4-(trifluoromethoxy)benzenesulfonamide]
30 | 19 µM | O=S(=O)(NC(c1cc(Cl)cc(Cl)c1)C1CCCCC1)c1ccc(OC(F)(F)F)cc1 (single isomer, unassigned) [Compound 140, N-(cyclohexyl(3,5-dichlorophenyl)methyl)-4-(trifluoromethoxy)benzenesulfonamide]
31 | 24.9 µM | CN=S(=O)(NC(CN(C)C)c1ccc(Cl)c(Cl)c1)c1ccc(OC(F)(F)F)cc1 (stereo not drawn) [Compound 126, N-(1-(3,4-dichlorophenyl)-2-(dimethylamino)ethyl)-N′-methyl-4-(trifluoromethoxy)benzenesulfonimidamide]
32 | 59.9 µM | O=S(=O)(NCC1(c2ccc(Cl)cc2)CC1)c1ccc(OC(F)(F)F)cc1 [Compound 228, N-((1-(4-chlorophenyl)cyclopropyl)methyl)-4-(trifluoromethoxy)benzenesulfonamide]
33 | 14.4 µM | CN(C)CC(NS(=O)(=O)c1ccc(OC(F)(F)F)c(Cl)c1)c1ccc(Cl)cc1 (stereo not drawn) [Compound 192, 3-chloro-N-(1-(4-chlorophenyl)-2-(dimethylamino)ethyl)-4-(trifluoromethoxy)benzenesulfonamide]
34 | 20 µM | CC1CC1C(NS(=O)(=O)c1ccc(OC(F)(F)F)cc1)c1ccccc1 (stereo not drawn) [Compound 103, N-((2-methylcyclopropyl)(phenyl)methyl)-4-(trifluoromethoxy)benzenesulfonamide]
35 | 12.3 µM | CCCc1ccc(S(=O)(=O)NC(CN(C)C)c2ccc(Cl)c(Cl)c2)cc1 (stereo not drawn) [Compound 137, N-(1-(3,4-dichlorophenyl)-2-(dimethylamino)ethyl)-4-propylbenzenesulfonamide]
36 | 55 µM | O=S(=O)(NCCC(c1ccccc1)C(F)(F)F)c1ccc(OC(F)(F)F)cc1 (stereo not drawn) [Compound 51, N-(4,4,4-trifluoro-3-phenylbutyl)-4-(trifluoromethoxy)benzenesulfonamide]

Same assay, conditions: LNCaP cell line, 48 hours

Row | GI50 | SMILES
37 | 24.9 µM | CN(C)CC(NS(=O)(=O)c1ccc(OC(F)(F)F)cc1)c1cccc(C(F)(F)F)c1 (single isomer, unassigned) [Compound 177, N-(2-(dimethylamino)-1-(3-(trifluoromethyl)phenyl)ethyl)-4-(trifluoromethoxy)benzenesulfonamide]
38 | 15.9 µM | CN(C)CC(NS(=O)(=O)c1ccc(-c2ccccc2)cc1)c1ccc(Cl)c(Cl)c1 (single isomer, unassigned) [Compound 196, N-(1-(3,4-dichlorophenyl)-2-(dimethylamino)ethyl)-[1,1′-biphenyl]-4-sulfonamide]
39 | 21.3 µM | O=S(=O)(NC(c1cc(Cl)cc(Cl)c1)C1CCCCC1)c1ccc(OC(F)(F)F)cc1 (single isomer, unassigned) [Compound 141, N-(cyclohexyl(3,5-dichlorophenyl)methyl)-4-(trifluoromethoxy)benzenesulfonamide]
